The record followed here is patent publication US7235584B2, “Non-psychotropic cannabinoids” (Pharmos Corporation, priority 2000, dated 2007).

In one test the target is NMDA receptor. The experiment in a line: [3H]MK-801 displacement radioligand binding, rat forebrain membranes. The method, then:
The identification of possible recognition sites for PRS-211 analogs was carried out by measuring the ability of these PRS-211 analogs to inhibit the binding of MK-801 to rat forebrain membranes.
Brains were removed from Sprague-Dawley rats no more than 5 min after decapitation. Membrane preparations were isolated according to a procedure described previously (Eshhar et al., Brain Res. 476:57, 1989). Prior to radioligand binding measurements, endogenous glutamate present in membranes was removed from the preparation by subjecting the membranes to 3–4 successive washings in 10 mM Tris HCl pH 7.2, performed at 4° C.
The specific binding of the new analogs to NMDA receptors was determined by their ability to displace [^3H]MK-801 from NMDA receptor in rat forebrain preparations. Specifically, rat-forebrain membranes (0.1 mg) were incubated for 2 hours at room temperature with 10 nM of tritiated MK-801 and with the PRS-211 compounds at 3 doses each. Non-specific binding was determined by the use of 0.1 mM MK-801. Following the incubation, bound radioligand was separated from unbound by filtration through GF/B filters. The filters were counted in a β-counter and log of analog concentrations versus % of [^3H]MK-801 specific binding was plotted. The IC50 was calculated from this plot.
Binding of [^3H]MK-801 to membranes was carried out in the presence of 30 μM glycine and 10 μM L-glutamate. Membranes (250 μg protein) were resuspended in 50 mM tris-acetate pH 7.4 buffer and incubated with 10 nM [^3H]MK-801, either alone or in the presence of PRS-211 compounds at 0.1–100 μM concentrations for three hours at room temperature (RT). Reaction buffers used in the different radioligand binding studies contained 10% of an ethanol/Emulphor 620/deionized water mixture. The ratio (by volume) of the respective components in the mixture was 20/3/57. This mixture is required for solubilizing PRS-211 compounds at concentrations above 30 μM. Reaction volume was 1 ml. Non-specific [^3H]MK-801 binding was determined in the presence of 100 μM unlabeled MK-801.
Concentration dependence of certain PRS-211 analogs on inhibition of [^3H]MK-801 binding is illustrated in FIG. 1.

In another test the test system is TNFα. Kind of test: Inhibition of TNFα in LPS-activated macrophage cell cultures (ELISA). Type of test: cell-based. The method, then:
Specific aspects of the inflammatory response cascade are mediated by the cytokine TNFα. Inhibition of TNFα production and/or inhibition of TNFα release by the new analogs are assayed in macrophage cell cultures activated with LPS. This serves as another indication of the general anti-inflammatory potential of the novel compounds.
The method for macrophage cell culture growth is identical to the one described in PGE2 assay. Aliquots of the supernatants collected following stimulation with LPS were quantitated for TNFα by enzyme linked immunosorbent assay (ELISA) using HRP conjugated to anti-TNFα antibodies and […] for the colorimetric reaction. The peroxidase catalyzed color reaction was stopped by acidification and the absorbance at 450 nm is measured. The absorbance at this wavelength is proportional to the concentration of TNFα in the sample determined from a standard curve plotting the concentrations of TNFα standards versus their absorbance.
On the technique in general: In an ELISA, binding on a coated surface is turned into a signal by an enzyme label.

The subject of test [1] is T1, nitric oxide synthase (NOS).
T1 construct: endogenous in cells
Kind of test: Inhibition of nitric oxide synthase, fluorimetric nitrite assay in LPS-stimulated macrophage supernatants. Type of test: cell-based. To be noted: macrophage cell cultures. The method, then: As one aspect of the anti-oxidative potential of the novel analogs they were tested for their ability to inhibit the enzyme nitric oxide synthase (NOS). This assay can also serve as another indication of the anti-inflammatory cascade, as well as the anti-oxidative mechanisms.
The final products of NOS are Nitrite (NO2) and Nitrate (NO3). The in vitro fluorimetric assay provides an accurate method for the measurement of the Nitrite, which is the majority of NO products. The principle of the fluorimetric assay is based on the addition of DAN (2,3-diaminonaphthalene) to the aliquots of the supernatants collected from macrophage cell cultures incubated with the new analogs and stimulated with LPS. Following, NaOH was added to convert Nitrite to a fluorescent compound 1(H)-naphthtriazole. The fluorescence was measured immediately in a fluorimeter using excitation wavelength of 365 nm and an emission wavelength of 450 nm.

Another test deals with tail flick model in mice. Kind of test: Tail flick model: analgesic effect and tolerance to morphine. It is filed as in vivo, ICR male mice. The source says: A mice model of acute pain, the tail flick model, was used to test the ability of compounds to prolong the analgesic activity of opioids, by preventing the development of tolerance, and their ability to reverse established tolerance.
The following animal model of acute pain was used to assess the potential analgesic effects of test compounds either alone or in combination with morphine. […] In this model the nociceptive stimulus is thermal and the latency time till the animal flicks its tail is monitored (Le Bars D., Gozariu M. & Cadden S. W., Pharmacol. Rev. 53: 597–652, 2001).
Hyperalgesia to radiant heat was assessed as follows. ICR male mice (20–30 g average body weight, Harlan, Israel) were injected with test compounds i.p. at the volume dose of 5 ml/kg. Each treatment group contained at least 6 animals. The test compounds were dissolved in Cremophor®:ethanol (70:30 weight/weight) and diluted 1:20 in saline prior to injection. Morphine HCl was directly dissolved in saline. Its vehicle was also included as control. Pain threshold was determined 30 minutes post-administration by measuring the foot-withdrawal latency defined as the time from the onset of radiant heat to foot withdrawal. The cut-off time was preset to 10 seconds in order to prevent tissue damage. […] Test compounds (5 mg/kg) and vehicle (5 ml/kg) were administered 15 minutes before morphine and pain threshold was determined 30 minutes after the first injection of morphine on day 1, 5, 8 and 10. […] Pain threshold was determined on day 1 and 10.
In each type of study, the animals were tested on given days 30 minutes after morphine injection in the tail flick apparatus (Socrel, model DS 20). Animals were gently held while their tails were located above the photoelectric cell. The tails were then illuminated (21V) at 2 cm from the distal tip and the latency time, measured in seconds, was recorded in duplicates. The results are expressed either as absolute latency time or as percent of animals that enjoyed significant analgesia as measured by the fact that their latency time is at least twice the latency time for vehicle treated animals. At the end of the study, the animals were euthanized by i.p. injection of 100 mg/kg sodium pentobarbitone.
The differences between the latency times among various treatment groups was analyzed by analysis of variance (ANOVA) followed by post-hoc Duncan test. The differences between the % of animals showing analgesia among various treatment groups was analyzed by analysis of variance (ANOVA) followed by post-hoc Fisher exact test. A value of p<0.05 is considered to be statistically significant.

In the next test the test system is transient MCAo in rats. The experiment in a line: Transient middle cerebral artery occlusion (MCAo), infarct size evaluation. It is filed as in vivo. To be noted: transient MCAo. The source says:
The middle cerebral artery is the cerebral blood vessel most susceptible to stroke in humans. In animals, coagulation, permanent ligation or permanent placement of an occluding thread ink the artery produces a permanent focal stroke affecting the MCA territory. Transient ligation or occlusion results in transient focal stroke. Both transient and permanent focal strokes result in varying degrees of edema and infarction in the affected brain regions. The ability of compounds to reduce the volumes of edema and infarction is considered a measure of their potential as anti-stroke treatment.
• a. Male rats (8/treatment group) 320–380 gr. (Harlan Israel). • b. Halothane (Rhone Poulenc France) • c. Pentobarbitone (Pental Veterinary, CTS Israel). • d. Poly-L-Lysine (Sigma, USA). • e. Silk suture material 3-0 and 4-0. • f. Nylon (Polyamid) suture material 3-0. Four cm pieces were cut and positioned in a solution of 1% Poly-L-Lysine for 1 minute and dried in an oven (60 ° C.) for 60 minutes. The tip of each piece was rounded under a flame. • g. Saline (Teva Medical). • h. Blank cremophor ethanol cosolvent (Pharmos). • i. Dexanabinol in cremophor ethanol cosolvent 50 mg/ml. (Both Dexanabinol and its vehicle were diluted in saline prior to drug administration. • j. Analogs PRS-211,092, PRS-211,095, PRS-211,128 PRS-211,132 and PRS-211,220 in cremophor ethanol cosolvent, 50 mg/ml. • k. The analogs were diluted in saline prior to drug administration. Methods Transient MCAo
a. Surgical details of the MCAO method used for testing dexanabinol analogs, are presented in Belayev, et al., (Belayev, Busto, Weizhao, and Ginsberg, Stroke 26:2313–2319, 1995) which is incorporated herein in its entirety by reference.
b. Two hours after the start of MCAo, the animals were reanesthetized with halothane, the neck wound was re-opened and the nylon thread pulled out of the Internal carotid artery (ICA). The skin wound was then closed with 3-0 silk suture material and the animals allowed to recover from the anesthesia.
c. Three sets of animals were tested. In the first test immediately (2+0 hours) before thread removal the animals were injected IV with either analogs PRS 211,095, PRS 211,128, PRS 211,132, or Dexanabinol (PRS 211,007) each at a dosage of 5 mg/kg. One group of animals was treated with 5mi/kg vehicle alone. In another group, the animals subjected to “sham” operation, the suture was passed into the ICA, as described above, but immediately withdrawn. […] Laser Doppler Flow (LDF) determined the success of MCAo—a drop of more then 50% in cerebral blood flow was considered as a sign of successful MCAO. […]
A detailed investigation of neurological performance was carried out on the first, third and the 7th day after the MCAo. […] Animals were scored according to their performance: […]

Where [2] appears, read: displacement of [3H]MK-801, rat forebrain membranes, read-out: NMDA BINDING IC50.

Molecules are shown by their SMILES. Where two headings read alike, the source gives them in different places. A value given as a limit tells only on which side of the number the result lay.

T1 sequence (P35228 whole entry): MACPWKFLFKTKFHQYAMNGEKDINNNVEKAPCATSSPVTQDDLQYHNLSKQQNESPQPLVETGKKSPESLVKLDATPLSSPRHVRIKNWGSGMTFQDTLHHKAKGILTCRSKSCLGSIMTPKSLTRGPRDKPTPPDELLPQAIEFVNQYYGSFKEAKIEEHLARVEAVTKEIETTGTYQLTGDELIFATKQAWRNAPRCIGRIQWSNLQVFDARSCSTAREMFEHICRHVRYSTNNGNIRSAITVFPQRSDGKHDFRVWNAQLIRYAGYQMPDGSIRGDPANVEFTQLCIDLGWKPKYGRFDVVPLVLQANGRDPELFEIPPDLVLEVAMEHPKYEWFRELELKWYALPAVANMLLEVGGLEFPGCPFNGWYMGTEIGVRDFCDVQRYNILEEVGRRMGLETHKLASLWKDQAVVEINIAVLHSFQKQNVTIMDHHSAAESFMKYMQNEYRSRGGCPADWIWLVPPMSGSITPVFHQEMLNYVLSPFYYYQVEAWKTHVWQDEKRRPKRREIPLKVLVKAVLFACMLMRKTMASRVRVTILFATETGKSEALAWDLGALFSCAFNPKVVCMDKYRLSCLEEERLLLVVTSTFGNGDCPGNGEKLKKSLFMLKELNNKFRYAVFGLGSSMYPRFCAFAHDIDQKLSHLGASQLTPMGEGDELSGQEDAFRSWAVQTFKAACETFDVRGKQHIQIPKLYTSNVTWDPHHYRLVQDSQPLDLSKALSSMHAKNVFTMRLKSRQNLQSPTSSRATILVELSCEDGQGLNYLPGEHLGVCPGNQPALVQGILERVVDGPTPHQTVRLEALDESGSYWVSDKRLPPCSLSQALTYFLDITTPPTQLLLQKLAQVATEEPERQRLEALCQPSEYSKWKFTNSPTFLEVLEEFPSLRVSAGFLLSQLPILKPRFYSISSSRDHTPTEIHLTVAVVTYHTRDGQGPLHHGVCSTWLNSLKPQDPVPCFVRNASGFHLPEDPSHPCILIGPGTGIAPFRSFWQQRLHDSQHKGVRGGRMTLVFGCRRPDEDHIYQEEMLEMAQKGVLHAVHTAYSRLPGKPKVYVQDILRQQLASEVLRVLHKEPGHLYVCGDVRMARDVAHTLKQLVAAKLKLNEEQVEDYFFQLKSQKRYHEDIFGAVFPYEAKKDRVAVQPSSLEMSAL

For orientation: IC50 means the midpoint of a concentration-inhibition curve. For the compound `CCCCCCC(C)(C)c1cc(O)c2c(c1)OC(C)(C)[C@H]1CC=C(CN3CCNCC3)CC21` (some centres unmarked) [211,133-000], the IC50 at NMDA receptor (setting [2]) was > 100 µM. A word on the inhibition: it is the drop in the measured response relative to a control, in per cent. Higher therefore signals a strong effect. `CCCCCCC(C)(C)c1cc(O)c2c(c1)OC(C)(C)[C@H]1CC=C(CN3CCC(C)CC3)CC21` (single isomer, unassigned; (+)) [211,251-000]: the “NMDA receptor binding / affinity (in words)” value in the test on NMDA receptor is on record as “do not exhibit substantial NMDA receptor binding”. Further, the IC50 on NMDA receptor (setting [2]) is > 100 µM. The figures for the inhibition at 10 µM (with TNFα; in test [1]) were 0% and 37%, respectively. For `CCCCCCC(C)(C)c1cc(O)c2c(c1)OC(C)(C)[C@H]1CC=C(CN3CC=CCC3)C[C@H]21` [211,145-000], the inhibition at 10 µM in test [1] worked out at 60%. For the compound `COc1ccc2c(c1)[C@]13CCCC[C@@H]1[C@H](C2)N(C)CC3` [dextromethorphan, reference compound], in the test with tail flick model in mice (in combination with morphine from day 11, tested day 12, 15, 17, PRS-211,220 5 mg/kg, dextromethorphan 20 mg/kg), the “reversal of established tolerance to morphine” value is given as “statistically undistinguishable from morphine alone”. Turning to `CCCCCCC(C)(C)c1cc(O)c2c(c1)OC(C)(C)[C@H]1CC=C(CN3CCCC3)C[C@H]21` [211,128-000], in the test with NMDA receptor, the “NMDA receptor binding / affinity (in words)” value is listed as “no detectable affinity”. Besides, the IC50 at NMDA receptor (setting [2]) was > 20 µM; on NMDA receptor (rat forebrain membranes, read-out: mean IC50 of [3H]MK-801 binding (FIG. 2)) it was > 20 µM. Also, the “function, reduction of mortality and brain morphometry” value in the test with transient MCAo in rats was “inactive”. Besides, in test [1], the inhibition at 10 µM is 27%. `CCCCCCC(C)(C)c1cc(O)c2c(c1)OC(C)(C)[C@H]1CC=C(C[S+](C)[O-])C[C@H]21` (some centres unmarked) [211,041-000] gave an inhibition at 10 µM in test [1] of 72%.

`CN1CC[C@]23c4c5ccc(O)c4O[C@H]2[C@@H](O)C=C[C@H]3[C@H]1C5` [morphine, reference compound]: in the test with tail flick model in mice (5 mg/kg, plain analgesic study, 30 minutes post-administration), the latency time came out at 7.5 s.

With `CCCCCCC(C)(C)c1cc(O)c2c(c1)OC(C)(C)[C@H]1CC=C(CC#N)C[C@H]21` [211,006-000], in test [1], 10 µM produced 19% inhibition. Consider `CCCCCCC(C)(C)c1cc(O)c2c(c1)OC(C)(C)[C@H]1CC=C(CN3CCN=C3SC)C[C@H]21` [211,204-000], for which testing at 10 µM in test [1] gave an inhibition of 85%. As for `CCCCCCC(C)(C)c1cc(O)c2c(c1)OC(C)(C)[C@H]1CC=C(CN3CCNC(C)C3)CC21` (some centres unmarked) [211,134-000], at NMDA receptor (setting [2]), the IC50 was > 100 µM. For `CCCCCCC(C)(C)c1cc(O)c2c(c1)OC(C)(C)[C@H]1CC=C(CN3CCCCC3)C[C@H]21` [211,159-000], the IC50 at NMDA receptor (setting [2]) is > 20 µM. Besides, the inhibition at 10 µM in test [1] was determined as 27%. As to `CCCCCCC(C)(C)c1cc(O)c2c(c1)OC(C)(C)[C@H]1CC=C(CN3CCOCC3)C[C@H]21` [211,132-000], the inhibition at 10 µM in test [1] came to 40%. As for `CCCCCCC(C)(C)c1cc(O)c2c(c1)OC(C)(C)[C@H]1CC=C(COCC(O)CO)C[C@H]21` (some centres unmarked) [211,211-000], in test [1], at 10 µM the inhibition was 0%. In turn, `CCCCCCC(C)(C)c1cc(O)c2c(c1)OC(C)(C)[C@H]1CC=C(Cc3ccccc3)C[C@H]21` [211,119-000] showed an inhibition at 10 µM in test [1] of 0%. `CCCCCCC(C)(C)c1cc(O)c2c(c1)OC(C)(C)[C@H]1CC=C(CN3CC=CC3)C[C@H]21` [211,212-000] displayed an inhibition at 10 µM in test [1] of 0%.
